Results taken from US7767679B2, “Sulfonylamino-derivatives as novel inhibitors of histone deacetylase” (Janssen Pharmaceutica N.V., priority 2002, dated 2010).
In brackets after ≈: the same amount, converted by molar mass. Where two headings read alike, the source gives them in different places.

Experiments:
[1] = biological target: histone deacetylase (HeLa nuclear extracts); assay: In vitro assay for inhibition of histone deacetylase; format: biochemical; conditions: HeLa nuclear extracts 60 μg/ml, [3H]acetylated histone H4 peptide substrate, 30 min
Protocol: The in vitro assay for inhibition of histone deacetylase (see example C.1) measures the inhibition of HDAC enzymatic activity obtained with the compounds of formula (I).
HeLa nuclear extracts (supplier: Biomol) were incubated at 60 μg/ml with 2×10^−8 M of radiolabeled peptide substrate. As a substrate for measuring HDAC activity a synthetic peptide, i.e. the amino acids 14-21 of histone H4, was used. The substrate is biotinylated at the NH2-terminal part with a 6-aminohexanoic acid spacer, and is protected at the COOH-terminal part by an amide group and specifically [^3H]acetylated at lysine 16. The substrate, biotin-(6-aminohexanoic)Gly-Ala-([^3H]-acetyl-Lys-Arg-His-Arg-Lys-Val-NH2), was added in a buffer containing 25 mM Hepes, 1 M sucrose, 0.1 mg/ml BSA and 0.01% Triton X-100 at pH 7.4. After 30 min the deacetylation reaction was terminated by the addition of HCl and acetic acid. (final concentration […] respectively). After stopping the reaction, the free ^3H-acetate was extracted with ethylacetate. After mixing and centrifugation, the radioactivity in an aliquot of the upper (organic) phase was counted in β-counter.
For each experiment, controls (containing HeLa nuclear extract and DMSO without compound), a blank incubation (containing DMSO but no HeLa nuclear extract or compound) and samples (containing compound dissolved in DMSO and HeLa nuclear extract) were run in parallel. In first instance, compounds were tested at a concentration of 10^−5M. […] In each test the blank value was substracted from both the control and the sample values. The control sample represented 100% of substrate deactylation. For each sample the radioactivity was expressed as a percentage of the mean value of the controls. […] Herein the effects of test compounds are expressed as pIC50 (the negative log value of the IC50-value).

[2] = Kinetic solubility in aqueous media; format: physicochemical; conditions: aqueous buffer, kinetic from dmso stock; phosphate citrate buffer pH 7.4, turbidity by nephelometer; read-out: Solubility Score
Protocol: Kinetic solubility in aqueous media measures the ability of a compound to stay in aqueous solution upon dilution (see example C.3).
DMSO-stock solutions are diluted with a single aqueous buffer solvent in 3 consecutive steps. For every dilution turbidity is measured with a nephelometer.
In the first dilution step, 10 μl of a concentrated stock-solution of the active compound, solubilized in DMSO (5 mM), was added to 100 μl phosphate citrate buffer pH 7.4 and mixed. In the second dilution step, an aliquot (20 μl) of the first dilution step was further dispensed in 100 μl phosphate citrate buffer pH 7.4 and mixed. Finally, in the third dilution step, a sample (20 μl) of the second dilution step was further diluted in 100 μl phosphate citrate buffer pH 7.4 and mixed. All dilutions were performed in 96-well plates. Immediately after the last dilution step the turbidity of the three consecutive dilution steps were measured with a nephelometer. Dilution was done in triplicate for each compound to exclude occasional errors. Based on the turbidity measurements a ranking is performed into 3 classes. Compounds with high solubility obtained a score of 3 and for this compounds the first dilution is clear. Compounds with medium solubility obtained a score of 2. For these compounds the first dilution is unclear and the second dilution is clear. […] The solubility of 9 compounds was measured.

[3] = tested on: A2780 ovarian carcinoma cells; assay: Antiproliferative activity on A2780 cells (MTT); format: cell-based; conditions: Homo sapiens, 96 h, four days of incubation, read-out: Cellular activity pIC50 (converted)
Protocol: Cellular activity of the compounds of formula (I) was determined on A2780 tumour cells using a colorimetric assay for cell toxicity or survival (Mosmann Tim, Journal of Immunological Methods 65: 55-63, 1983)(see example C.2).
All compounds tested were dissolved in DMSO and further dilutions were made in culture medium. Final DMSO concentrations never exceeded 0.1% (v/v) in cell proliferation assays. Controls contained A2780 cells and DMSO without compound and blanks contained DMSO but no cells. MTT was dissolved at 5 mg/ml in PBS. A glycine buffer comprised of 0.1 M glycine and 0.1 M NaCl buffered to pH 10.5 with NaOH (1 N) was prepared (all reagents were from Merck).
The human A2780 ovarian carcinoma cells (a kind gift from Dr. T. C. Hamilton [Fox Chase Cancer Centre, Pennsylvania, USA]) were cultured in RPMI 1640 medium supplemented with 2 mM L-glutamine, 50 μg/ml gentamicin and 10% fetal calf serum. Cells were routinely kept as monolayer cultures at 37° C. in a humidified 5% CO2 atmosphere. Cells were passaged once a week using a trypsin/EDTA solution at a split ratio of 1:40. All media and supplements were obtained from Life Technologies. Cells were free of mycoplasma contamination as determined using the Gen-Probe Mycoplasma Tissue Culture kit (supplier: BioMérieux).
Cells were seeded in NUNC™ 96-well culture plates (Supplier: Life Technologies) and allowed to adhere to the plastic overnight. Densities used for plating were 1500 cells per well in a total volume of 200 μl medium. After cell adhesion to the plates, medium was changed and drugs and/or solvents were added to a final volume of 200 μl. Following four days of incubation, medium was replaced by 200 μl fresh medium and cell density and viability was assessed using an […] assay. To each well, 25 μl μl MTT solution was added and the cells were further incubated for 2 hours at 37° C. The medium was then carefully aspirated and the blue MT-formazan product was solubilized by addition of 25 μl glycine buffer followed by 100 μl of DMSO. […] Within an experiment, the results for each experimental condition are the mean of 3 replicate wells. For initial screening purposes, compounds were tested at a single fixed concentration of 10^−6 M. For active compounds, the experiments were repeated to establish full concentration-response curves. For each experiment, controls (containing no drug) and a blank incubation (containing no cells or drugs) were run in parallel. The blank value was subtracted from all control and sample values. For each sample, the mean value for cell growth (in absorbance units) was expressed as a percentage of the mean value for cell growth of the control. […] Herein the effects of test compounds are expressed as pIC50 (the negative log value of the IC50-value).

[4] = not given; remark: listed apart in the source

Q: What does the source list for `O=C(NO)c1cnc(N2CC[C@H](NS(=O)(=O)c3ccc4ccccc4c3)[C@H](CO)C2)nc1` [Co. No. 7]?
A: Enzyme activity pIC50 [1]: 7.533; solubility [2]: > 455 µM; IC50 [3]: 9620 nM; melting point: 203 °C

Q: Which “Enzyme activity pIC50” value [1] does the source give for `O=C(NO)c1cnc(N2CCC(CNS(=O)(=O)c3ccc4ccccc4c3)CC2)nc1` [Co. No. 5] here?
A: The value was 8.123.

Q: And the solubility [2]?
A: Its solubility is less than 76 µM.

Q: And the IC50 [3]?
A: The IC50 was 369 nM.

Q: Which “% metabolism” value ([4]; 15 min incubation with active microsomes (1 mg/ml), compound 5 μM) does the source give for `CCCO` [propanol] here?
A: Its value is 25%.

Q: Which “Enzyme activity pIC50” value [1] does the source give for `O=C(NO)c1cnc(N2CC[C@H](CNS(=O)(=O)c3ccc4ccccc4c3)[C@H](O)C2)nc1` [Co. No. 8] here?
A: The value was 7.355.

Q: What about the solubility [2] of the same compound?
A: Its solubility is greater than 455 µM.

Q: And the IC50 [3]?
A: Its IC50 is 3040 nM.

Q: What about the melting point of the same compound?
A: The melting point was 224 °C.

Q: With `O=C(NO)c1cnc(N2CCC(O)(CNS(=O)(=O)c3ccc4ccccc4c3)CC2)nc1` [Co. No. 9] as the compound, how does the “Enzyme activity pIC50” value [1] read?
A: Its value is 7.579.

Q: And the solubility [2]?
A: Its solubility is 76 to 455 µM (≈ 34.8 to 208 µg/mL).

Q: What about the IC50 [3] of the same compound?
A: Its IC50 is greater than 10000 nM.

Q: And the melting point?
A: The melting point was 228 °C.

Q: With `O=C(NO)c1ccc(N2CCC(NS(=O)(=O)c3ccc(-c4ccccc4)cc3)CC2)nc1` [compound 15] as the compound, how does the “Enzyme activity pIC50” value [1] read?
A: The value was 7.413.

Q: What about the solubility [2] of the same compound?
A: The solubility was less than 76 µM.

Q: What about the IC50 [3] of the same compound?
A: The IC50 was 1240 nM.

Q: With `COc1cc(N)c(Cl)cc1C(=O)NC1CCN(CCCOc2ccc(F)cc2)CC1OC` (stereo not shown) [Cisapride] as the compound, how does the “% metabolism” value ([4]; human, 15 min, 5 μM) read?
A: Its value is 45%.

Q: Which “Enzyme activity pIC50” value [1] does the source give for `O=C(NO)c1cnc(N2CCC(NS(=O)(=O)c3ccc4ccccc4c3)CC2)nc1` [Co. No. 2] here?
A: The value was 6.104.

Q: What about the solubility [2] of the same compound?
A: The solubility was greater than 455 µM.

Q: And the IC50 [3]?
A: The IC50 was 27.1 nM.

Q: And the melting point?
A: Its melting point is 200 °C.

Q: For `O=C(NO)c1ccc(N2CCC(CNS(=O)(=O)c3ccc4ccccc4c3)CC2)nc1` [Co. No. 4], which “Enzyme activity pIC50” value [1] is on record?
A: The value was 7.574.

Q: And the solubility [2]?
A: The solubility was less than 76 µM.

Q: What about the IC50 [3] of the same compound?
A: Its IC50 is 1360 nM.

Q: What about the melting point of the same compound?
A: Its melting point is 173 °C.
